What was measured:
Type in all cases: biochemical
[1] = biological target: SIK2 (QIK) (SEQ ID NO: 11) (Homo sapiens, UniProt Q9H0K1); assay: SIK2 kinase assay (radiometric, 10 μM ATP); conditions: read-out: SIK2 (QIK) (SEQ ID NO: 11) kinase inhibition result
Procedure: Procedure: Enzyme was incubated with substrate peptide in reaction buffer in the presence and absence of test compounds or Staurosporine. All additions were done on ice, followed by the addition of ATP mix. Wells were uniformly mixed using an Eppendorff plate shaker and incubated at 30° C. for 20 min, and stopped by the addition of 5 μL of 3% phosphoric acid. Volume was increased to 100 μL by adding 0.8% phosphoric acid which was then transferred to PC filter mats (Millipore), pre-equilibrated with 70% ethanol and water. Plates were washed thrice with 100 μL 0.8% phosphoric acid and dried for an hour at 60° C.

SIK1 (SEQ ID NO: 10) = biological target: T1, SIK1 (SEQ ID NO: 10) (Homo sapiens, UniProt P57059); assay: Protein kinase assay, SIK1; conditions: read-out: SIK1 (SEQ ID NO: 10) kinase inhibition result
T1 construct: Reaction Biology Corporation (assay service, HotSpot panel)
T1 sequence (P57059 whole entry): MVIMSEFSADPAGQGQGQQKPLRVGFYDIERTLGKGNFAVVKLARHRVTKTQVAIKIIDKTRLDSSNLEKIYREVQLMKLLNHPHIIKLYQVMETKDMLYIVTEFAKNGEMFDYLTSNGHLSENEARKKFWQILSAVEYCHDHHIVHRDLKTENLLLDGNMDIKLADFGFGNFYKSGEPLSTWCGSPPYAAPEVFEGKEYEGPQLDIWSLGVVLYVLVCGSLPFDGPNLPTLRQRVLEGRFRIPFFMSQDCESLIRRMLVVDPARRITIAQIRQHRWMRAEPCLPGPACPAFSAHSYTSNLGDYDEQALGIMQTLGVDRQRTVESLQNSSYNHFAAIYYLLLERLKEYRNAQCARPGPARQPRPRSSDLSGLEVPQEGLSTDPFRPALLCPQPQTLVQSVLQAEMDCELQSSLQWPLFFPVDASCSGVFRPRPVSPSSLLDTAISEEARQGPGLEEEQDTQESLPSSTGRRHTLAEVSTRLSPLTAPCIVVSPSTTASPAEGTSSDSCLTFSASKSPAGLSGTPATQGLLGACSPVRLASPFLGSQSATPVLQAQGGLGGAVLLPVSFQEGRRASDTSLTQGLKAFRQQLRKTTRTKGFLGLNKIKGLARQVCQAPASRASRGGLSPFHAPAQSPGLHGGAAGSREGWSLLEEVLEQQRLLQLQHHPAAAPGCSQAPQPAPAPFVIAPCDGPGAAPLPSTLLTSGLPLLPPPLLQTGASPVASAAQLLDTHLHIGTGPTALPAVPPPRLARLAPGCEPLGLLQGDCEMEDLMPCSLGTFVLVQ
Procedure: (§1) Briefly, specific kinase/substrate pairs along with required cofactors were prepared in reaction buffer; 20 mM Hepes (pH 7.5), 10 mMmgCl2, 1 mM EGTA, 0.02% Brij35, 0.02 mg/ml BSA, 0.1 mM Na3VO4, 2 mM DTT, 1% DMSO. Compounds were delivered into the reaction, followed ˜20 min later by addition of a mixture of ATP (Sigma) and 33P ATP (PerkinElmer) to a final concentration of 10 μM. […] IC50 values and curve fits were obtained using Prism (GraphPad Software). Kinome tree representations were prepared using Kinome Mapper (http://www.reactionbiology.com/apps/kinome/mapper/LaunchKinome.htm).

[2] = biological target: T2, SIK3 (QSK) (SEQ ID NO: 24) (Homo sapiens, UniProt Q9Y2K2); assay: Protein kinase assay, SIK3; conditions: read-out: SIK3 (QSK) (SEQ ID NO: 24) kinase inhibition result
T2 construct: Reaction Biology Corporation (assay service, HotSpot panel)
T2 sequence (Q9Y2K2 whole entry): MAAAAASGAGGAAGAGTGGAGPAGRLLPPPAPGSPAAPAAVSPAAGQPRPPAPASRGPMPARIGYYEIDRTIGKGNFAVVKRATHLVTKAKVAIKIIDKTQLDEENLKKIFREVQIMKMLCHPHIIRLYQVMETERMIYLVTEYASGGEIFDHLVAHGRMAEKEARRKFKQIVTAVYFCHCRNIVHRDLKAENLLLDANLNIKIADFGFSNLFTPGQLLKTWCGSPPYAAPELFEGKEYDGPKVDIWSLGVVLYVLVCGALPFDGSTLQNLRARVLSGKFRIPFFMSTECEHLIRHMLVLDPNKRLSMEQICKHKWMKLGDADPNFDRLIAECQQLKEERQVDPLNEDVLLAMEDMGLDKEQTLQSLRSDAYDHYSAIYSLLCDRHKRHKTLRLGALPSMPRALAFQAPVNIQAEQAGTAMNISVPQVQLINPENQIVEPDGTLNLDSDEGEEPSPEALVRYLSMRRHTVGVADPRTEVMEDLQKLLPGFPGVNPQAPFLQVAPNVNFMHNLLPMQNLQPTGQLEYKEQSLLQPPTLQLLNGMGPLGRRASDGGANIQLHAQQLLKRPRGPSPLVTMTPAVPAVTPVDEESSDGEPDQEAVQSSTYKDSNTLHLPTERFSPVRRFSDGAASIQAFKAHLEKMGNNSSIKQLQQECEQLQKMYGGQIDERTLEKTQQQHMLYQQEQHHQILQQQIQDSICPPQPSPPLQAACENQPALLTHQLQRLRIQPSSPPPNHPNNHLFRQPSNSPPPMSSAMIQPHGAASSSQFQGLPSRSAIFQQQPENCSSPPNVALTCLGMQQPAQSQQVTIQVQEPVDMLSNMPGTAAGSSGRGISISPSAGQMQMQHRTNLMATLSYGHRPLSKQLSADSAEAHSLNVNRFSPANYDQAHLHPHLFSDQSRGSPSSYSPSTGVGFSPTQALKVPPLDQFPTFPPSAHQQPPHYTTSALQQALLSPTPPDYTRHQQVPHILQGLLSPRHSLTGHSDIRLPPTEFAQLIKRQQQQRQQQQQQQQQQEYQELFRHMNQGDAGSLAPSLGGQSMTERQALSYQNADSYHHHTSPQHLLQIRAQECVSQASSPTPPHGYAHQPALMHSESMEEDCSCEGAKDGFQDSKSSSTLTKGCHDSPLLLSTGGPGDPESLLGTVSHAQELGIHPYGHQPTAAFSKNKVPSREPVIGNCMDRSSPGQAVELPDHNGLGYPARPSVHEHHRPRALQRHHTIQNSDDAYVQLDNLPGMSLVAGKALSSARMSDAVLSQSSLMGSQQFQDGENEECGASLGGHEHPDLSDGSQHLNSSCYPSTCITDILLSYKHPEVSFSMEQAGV
Procedure: as §1

Sequence of SIK2 (QIK) (SEQ ID NO: 11) (Q9H0K1 whole entry): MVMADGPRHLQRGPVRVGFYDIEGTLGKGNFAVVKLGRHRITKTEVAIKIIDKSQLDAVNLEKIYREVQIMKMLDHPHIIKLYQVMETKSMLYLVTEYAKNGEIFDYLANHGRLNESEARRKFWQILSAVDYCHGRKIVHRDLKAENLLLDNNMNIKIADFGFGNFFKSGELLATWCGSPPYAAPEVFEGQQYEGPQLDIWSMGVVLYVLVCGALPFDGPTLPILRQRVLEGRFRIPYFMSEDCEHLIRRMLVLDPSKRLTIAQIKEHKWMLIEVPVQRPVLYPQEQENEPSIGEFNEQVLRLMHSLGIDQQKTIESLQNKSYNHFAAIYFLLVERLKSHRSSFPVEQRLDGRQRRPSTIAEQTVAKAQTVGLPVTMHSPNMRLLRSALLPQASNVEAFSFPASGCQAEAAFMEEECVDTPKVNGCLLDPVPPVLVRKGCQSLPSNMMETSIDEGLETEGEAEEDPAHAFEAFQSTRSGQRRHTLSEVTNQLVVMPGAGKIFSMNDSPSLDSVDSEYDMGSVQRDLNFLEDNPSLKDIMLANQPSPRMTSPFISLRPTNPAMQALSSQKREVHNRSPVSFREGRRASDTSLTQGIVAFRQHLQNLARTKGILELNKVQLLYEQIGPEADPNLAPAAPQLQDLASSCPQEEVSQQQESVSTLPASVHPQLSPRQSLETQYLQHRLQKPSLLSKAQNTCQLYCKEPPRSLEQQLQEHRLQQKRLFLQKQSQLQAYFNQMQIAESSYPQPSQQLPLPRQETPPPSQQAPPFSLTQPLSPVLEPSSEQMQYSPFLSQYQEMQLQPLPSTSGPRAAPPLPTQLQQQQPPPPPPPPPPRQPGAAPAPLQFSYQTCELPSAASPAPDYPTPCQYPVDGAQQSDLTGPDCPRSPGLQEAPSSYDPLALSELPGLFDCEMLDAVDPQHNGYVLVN

Compound: COc1c(F)cccc1-c1c[nH]c2ncc(-c3cccc(S(=O)(=O)N(C)C(C)(C)C)c3)cc12 [Example 180]
- IC50 [1]: < 100 nM
- IC50 (SIK1 (SEQ ID NO: 10)): > 1000 nM
- IC50 [2]: > 100 nM

Compound: COc1c(F)cc(F)cc1-c1c[nH]c2ncc(-c3cccc(S(=O)(=O)N(C)C(C)(C)C)c3)cc12 [Example 181, N-(tert-butyl)-3-(3-(3,5-difluoro-2-methoxyphenyl)-1H-pyrrolo[2,3-b]pyridin-5-yl)-N-methylbenzenesulfonamide]
- IC50 [1]: < 100 nM
- IC50 (SIK1 (SEQ ID NO: 10)): > 1000 nM
- IC50 [2]: > 100 nM

Compound: COc1c(F)cccc1-c1c[nH]c2ncc(-c3cccc(S(=O)(=O)N4CCCC4)c3)cc12 [Example 182, 3-(3-fluoro-2-methoxyphenyl)-5-(3-(pyrrolidin-1-ylsulfonyl)phenyl)-1H-pyrrolo[2,3-b]pyridine]
- IC50 [1]: < 100 nM
- IC50 (SIK1 (SEQ ID NO: 10)): > 1000 nM
- IC50 [2]: > 100 nM

Compound: COc1c(F)cc(F)cc1-c1c[nH]c2ncc(-c3cccc(S(=O)(=O)N4CCCC4)c3)cc12 [Example 183, 3-(3,5-difluoro-2-methoxyphenyl)-5-(3-(pyrrolidin-1-ylsulfonyl)phenyl)-1H-pyrrolo[2,3-b]pyridine]
- IC50 [1]: < 100 nM
- IC50 (SIK1 (SEQ ID NO: 10)): > 1000 nM
- IC50 [2]: > 100 nM

Compound: COc1c(F)cccc1-c1c[nH]c2ncc(-c3cccc(S(=O)(=O)N(C)C)c3)cc12 [Example 184, 3-(3-(3-fluoro-2-methoxyphenyl)-1H-pyrrolo[2,3-b]pyridin-5-yl)-N,N-dimethylbenzenesulfonamide]
- IC50 [1]: < 100 nM
- IC50 (SIK1 (SEQ ID NO: 10)): > 1000 nM
- IC50 [2]: > 100 nM

Compound: COc1c(F)cc(F)cc1-c1c[nH]c2ncc(-c3cccc(S(=O)(=O)N(C)C)c3)cc12 [Example 185, 3-(3-(3,5-difluoro-2-methoxyphenyl)-1H-pyrrolo[2,3-b]pyridin-5-yl)-N,N-dimethylbenzenesulfonamide]
- IC50 [1]: < 100 nM
- IC50 (SIK1 (SEQ ID NO: 10)): > 1000 nM
- IC50 [2]: > 100 nM

Compound: Oc1ccccc1-c1c[nH]c2ncc(-c3ccc(CN4CCOCC4)s3)cc12 [Example 192, 2-(5-(5-(morpholinomethyl)thiophen-2-yl)-1H-pyrrolo[2,3-b]pyridin-3-yl)phenol]
- IC50 [1]: < 100 nM
- IC50 (SIK1 (SEQ ID NO: 10)): > 100 nM
- IC50 [2]: > 100 nM

Compound: Oc1c(F)cccc1-c1c[nH]c2ncc(-c3ccc(CN4CCOCC4)s3)cc12 [Example 193, 2-fluoro-6-(5-(5-(morpholinomethyl)thiophen-2-yl)-1H-pyrrolo[2,3-b]pyridin-3-yl)phenol]
- IC50 [1]: < 100 nM
- IC50 (SIK1 (SEQ ID NO: 10)): > 100 nM
- IC50 [2]: > 100 nM

Compound: CN(C(C)(C)C)S(=O)(=O)c1cccc(-c2cnc3[nH]cc(-c4cccc5c4OC(F)(F)O5)c3c2)c1 [Example 196, N-(tertbutyl)-3-(3-(2,2-difluorobenzo[d][1,3]dioxol-4-yl)-1H-pyrrolo[2,3-b]pyridin-5-yl)-N-methylbenzene-sulfonamide]
- IC50 [1]: < 100 nM
- IC50 (SIK1 (SEQ ID NO: 10)): > 100 nM
- IC50 [2]: < 100 nM

Compound: FC1(F)Oc2cccc(-c3c[nH]c4ncc(-c5ccc(CN6CCCC6)s5)cc34)c2O1 [Example 197, 3-(2,2-difluorobenzo[d][1,3]dioxol-4-yl)-5-(5-(pyrrolidin-1-ylmethyl)thiophen-2-yl)-1H-pyrrolo[2,3-b]pyridine]
- IC50 [1]: < 100 nM
- IC50 (SIK1 (SEQ ID NO: 10)): > 100 nM
- IC50 [2]: < 100 nM

Compound: FC1(F)Oc2cccc(-c3c[nH]c4ncc(-c5ccc(CN6CCCCC6)s5)cc34)c2O1 [Example 198, 3-(2,2-difluorobenzo[d][1,3]dioxol-4-yl)-5-(5-(piperidin-1-ylmethyl)thiophen-2-yl)-1H-pyrrolo[2,3-b]pyridine]
- IC50 [1]: < 100 nM
- IC50 (SIK1 (SEQ ID NO: 10)): > 100 nM
- IC50 [2]: < 100 nM

Compound: FC1(F)Oc2cccc(-c3c[nH]c4ncc(-c5csc(N6CCOCC6)n5)cc34)c2O1 [Example 199, 4-(4-(3-(2,2-difluorobenzo[d][1,3]dioxol-4-yl)-1H-pyrrolo[2,3-b]pyridin-5-yl)thiazol-2-yl)morpholine]
- IC50 [1]: < 100 nM
- IC50 (SIK1 (SEQ ID NO: 10)): > 100 nM
- IC50 [2]: > 100 nM

Compound: FC1(F)Oc2ccc(-c3c[nH]c4ncc(-c5ccc(CN6CCOCC6)s5)cc34)cc2O1 [Example 200]
- IC50 [1]: < 100 nM
- IC50 (SIK1 (SEQ ID NO: 10)): > 100 nM
- IC50 [2]: < 100 nM
